Measured values reported in the supplement of paper PMC10307832.

Columns and labels:
Experiment in all cases: relative viability (nuclei count vs DMSO), 5 days (fraction); higher = more cells survive
Entinostat + Pictilisib = compound: Nc1ccccc1NC(=O)c1ccc(CNC(=O)OCc2cccnc2)cc1 [Entinostat] + CS(=O)(=O)N1CCN(Cc2cc3nc(-c4cccc5[nH]ncc45)nc(N4CCOCC4)c3s2)CC1 [Pictilisib] (partner 1 µM)
In short: (§1)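 Lung cancer cell lines were pin-tool dosed in 1536-well plates on the day after seeding, with either a lone drug or a fixed anchor-drug dose plus five library-drug doses (not always all listed) in √10 steps. Nuclei were counted on 4× images after 5 days. Relative viability is the ratio of treated-well to vehicle-well nuclei counts, with each value a median of duplicate plates.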

[1] = compound: C1COCCN1C2=NC(=NC3=C2OC4=C3C=CC=N4)C5=CC(=CC=C5)NC(=O)C6=CN=C(C=C6)N + CS(=O)(=O)CCNCc1ccc(-c2ccc3ncnc(Nc4ccc(OCc5cccc(F)c5)c(Cl)c4)c3c2)o1 [Lapatinib] (partner 2 µM)
In short: as §1

[2] = compound: C1COCCN1C2=NC(=NC3=C2OC4=C3C=CC=N4)C5=CC(=CC=C5)NC(=O)C6=CN=C(C=C6)N + NC(=O)Nc1cc(-c2cccc(F)c2)sc1C(=O)N[C@H]1CCCNC1 [AZD7762] (partner 0.2 µM)
In short: as §1

[3] = compound: C1COCCN1C2=NC(=NC3=C2OC4=C3C=CC=N4)C5=CC(=CC=C5)NC(=O)C6=CN=C(C=C6)N + CCNC(=O)c1noc(-c2cc(C(C)C)c(O)cc2O)c1-c1ccc(CN2CCOCC2)cc1 [Luminespib] (partner 0.01 µM)
In short: as §1

Cell Line | relative viability (Entinostat + Pictilisib; first compound 0.02 µM) | relative viability (Entinostat + Pictilisib; first compound 0.06325 µM) | relative viability (Entinostat + Pictilisib; first compound 0.2 µM) | relative viability (Entinostat + Pictilisib; first compound 0.6325 µM) | relative viability (Entinostat + Pictilisib; first compound 2 µM) | relative viability ([1]; first compound 0.02 µM) | relative viability ([1]; first compound 0.06325 µM) | relative viability ([1]; first compound 0.2 µM) | relative viability ([1]; first compound 0.6325 µM) | relative viability ([1]; first compound 2 µM) | relative viability ([2]; first compound 0.02 µM) | relative viability ([2]; first compound 0.06325 µM) | relative viability ([2]; first compound 0.2 µM) | relative viability ([2]; first compound 0.6325 µM) | relative viability ([2]; first compound 2 µM) | relative viability ([3]; first compound 0.02 µM) | relative viability ([3]; first compound 0.06325 µM) | relative viability ([3]; first compound 0.2 µM) | relative viability ([3]; first compound 0.6325 µM) | relative viability ([3]; first compound 2 µM)
Calu-6 | 0.814 | 0.934 | 0.864 | 0.615 | 0.383 | 1.3 | 1.1 | 1.12 | 0.98 | 0.742 |  |  |  |  |  |  |  |  |  | 
NCI-H1648 |  |  |  |  |  |  |  |  |  |  | 0.619 | 0.747 | 0.641 | 0.698 | 0.539 |  |  |  |  | 
NCI-H1623 |  |  |  |  |  |  |  |  |  |  |  |  |  |  |  | 0.486 | 0.503 | 0.461 | 0.439 | 0.835
HCC-78 | 0.212 | 0.194 | 0.178 | 0.108 | 0.128 | 0.671 | 0.792 | 0.767 | 0.762 | 0.72 | 0.628 | 0.642 | 0.576 | 0.685 | 0.589 |  |  |  |  | 
COR-L23 | 0.714 | 0.728 | 0.588 | 0.257 | 0.141 | 0.946 | 1.26 | 1.15 | 1.24 | 0.451 |  |  |  |  |  | 0.761 | 0.99 | 0.89 | 0.667 | 0.467
NCI-H2009 | 0.811 | 0.941 | 0.882 | 0.73 | 0.546 | 0.933 | 0.944 | 0.889 | 0.89 | 0.792 |  |  |  |  |  | 1.07 | 1.07 | 0.999 | 1.01 | 0.725
